The test system of data set [1] is MDCK. The data set can be described thus: Efflux ratio of permeability from basolateral to apical over apical to basolateral side of MDCK cells expressing MDR1. It counts as ADME, cell-based, Canis lupus familiaris. Particulars: dog.
Data set [2] in a line: in vitro. Particulars: human, Caco-2.
The next data set can be described thus: clinical. Particulars: human, in vivo.
Data set [3] in a line: in vitro. Particulars: human, Caco-2. The source holds these as a separate data set.
Data set [4] deals with MDCK. The data set can be described thus: Efflux ratio of permeability from basolateral to apical over apical to basolateral side of MDCK cells expressing BCRP. Particulars: dog. It counts as ADME, cell-based, Canis lupus familiaris.
The next data set concerns Intestine. The data set can be described thus: Ratio of intestine AUC in po dosed mdr1 knock out mouse to intestine AUC in po dosed wild type mouse. It counts as ADME, organism-based. Particulars: in vivo.
In another data set the test system is P-gp. Description: in vitro. Particulars: human.
Data set [5] in a line: in vitro. Particulars: human, Caco-2. The source holds these as a separate data set.
The conditions of data set [6]: human, caco-2, 2 h, 10 µM.
For data set [7] the following is noted: human, caco-2, 2 h, 10 µM. This is another data set of the same source.
Data set [8] concerns the target ATP-binding cassette sub-family C member 2 (Homo sapiens, UniProt Q92887). The data set can be described thus: Fold activity change at MRP2 ATPase (unknown origin) relative to control. It counts as ADME.
For another data set, the species on record is Homo sapiens. Particulars: in vivo.

Numbered stars: 1 amine (or outer) side, 2 acyl side, 3 side chain; on linkers, the order of the positions; unused ones are H or OH. Bridge positions count the residues as written; N and C are the ends. Square brackets hold non-standard residues; d marks the D form. Peptide text beside a SMILES is read from it. I, II: the chains in the order shown. Actinocin(9to1) = Cc1c2oc3c(C)ccc(C(=O)[*:1])c3nc-2c(C(=O)[*:2])c(N)c1=O; NMeV = CN[C@H](C(=O)O)C(C)C; Sar = CNCC(=O)O

ATP-binding cassette sub-family C member 2, sequence (Q92887 whole entry): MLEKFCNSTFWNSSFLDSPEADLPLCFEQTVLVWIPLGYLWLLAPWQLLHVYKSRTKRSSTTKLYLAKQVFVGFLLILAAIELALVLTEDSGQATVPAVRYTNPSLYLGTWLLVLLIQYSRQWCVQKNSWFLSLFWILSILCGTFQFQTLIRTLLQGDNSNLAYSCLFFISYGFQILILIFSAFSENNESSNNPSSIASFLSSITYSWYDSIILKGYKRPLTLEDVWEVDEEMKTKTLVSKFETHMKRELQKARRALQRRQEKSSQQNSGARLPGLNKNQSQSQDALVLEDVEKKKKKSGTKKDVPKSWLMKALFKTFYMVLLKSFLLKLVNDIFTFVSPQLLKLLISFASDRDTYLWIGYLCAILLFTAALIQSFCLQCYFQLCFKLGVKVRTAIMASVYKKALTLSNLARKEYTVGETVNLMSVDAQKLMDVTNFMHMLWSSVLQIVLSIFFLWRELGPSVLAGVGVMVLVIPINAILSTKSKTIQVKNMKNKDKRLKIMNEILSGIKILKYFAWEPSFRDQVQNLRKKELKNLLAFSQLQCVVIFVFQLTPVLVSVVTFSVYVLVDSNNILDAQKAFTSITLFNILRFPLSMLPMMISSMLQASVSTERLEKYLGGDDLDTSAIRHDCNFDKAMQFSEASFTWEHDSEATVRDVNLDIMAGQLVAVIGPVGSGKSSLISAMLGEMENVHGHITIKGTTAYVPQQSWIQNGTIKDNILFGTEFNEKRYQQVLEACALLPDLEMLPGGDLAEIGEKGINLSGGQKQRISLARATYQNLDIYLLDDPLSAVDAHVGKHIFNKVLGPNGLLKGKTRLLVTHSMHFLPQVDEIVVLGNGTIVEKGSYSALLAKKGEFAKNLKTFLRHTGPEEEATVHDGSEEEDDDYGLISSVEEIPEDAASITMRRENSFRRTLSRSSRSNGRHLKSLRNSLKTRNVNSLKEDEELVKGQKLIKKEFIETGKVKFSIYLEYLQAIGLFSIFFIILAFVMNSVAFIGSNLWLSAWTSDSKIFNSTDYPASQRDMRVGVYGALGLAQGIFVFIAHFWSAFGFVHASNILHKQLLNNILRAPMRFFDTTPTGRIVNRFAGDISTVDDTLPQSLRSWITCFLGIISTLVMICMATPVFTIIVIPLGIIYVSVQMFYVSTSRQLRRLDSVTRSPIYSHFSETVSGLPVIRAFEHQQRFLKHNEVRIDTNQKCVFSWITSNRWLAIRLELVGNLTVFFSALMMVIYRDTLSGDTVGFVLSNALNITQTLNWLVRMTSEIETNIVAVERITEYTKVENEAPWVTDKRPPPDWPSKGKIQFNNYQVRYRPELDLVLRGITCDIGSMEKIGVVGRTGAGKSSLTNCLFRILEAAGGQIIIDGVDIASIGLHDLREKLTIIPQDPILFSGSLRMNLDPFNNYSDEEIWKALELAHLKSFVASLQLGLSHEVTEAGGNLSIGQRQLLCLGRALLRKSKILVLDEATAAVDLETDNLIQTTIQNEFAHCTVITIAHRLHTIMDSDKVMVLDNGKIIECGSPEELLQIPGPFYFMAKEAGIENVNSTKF
Description for Homo sapiens: Fraction absorbed in human
Description for clinical: Fraction absorbed in human

The efflux ratio is a quotient of directional permeabilities that is used to spot active efflux. By Papp A→B is commonly meant how fast a substance crosses the layer from the apical side. As a reminder, the Papp B→A is how fast a substance crosses the layer from the basolateral side. On to `COc1cc([C@@H]2c3cc4c(cc3[C@@H](O[C@@H]3O[C@@H]5CO[C@@H](C)O[C@H]5[C@H](O)[C@H]3O)[C@H]3COC(=O)[C@H]23)OCO4)cc(OC)c1O` [ETOPOSIDE], for which the Ratio with MDCK [1] is recorded as 11; in the data set on MDCK [4], 9.7. Also, the efflux ratio at 2 h, 10 µM in the data set “in vitro [2]” came to 4.8; in the data set with P-gp (Caco-2), 1.4. In addition, the Fa in “clinical” was 25%. Also, in the data set “in vitro [3]”, the Papp A→B at 2 h, 10 µM was found to be 0.5 ×10⁻⁶ cm/s. Moreover, the “Ratio AUC” value with Intestine is 3.3. This molecule also returned a Papp B→A at 2 h, 10 µM in the data set “in vitro [5]” of 3 ×10⁻⁶ cm/s.
One may read the Papp as the rate of passage across a membrane or cell layer, normalised by area and donor concentration. Lower therefore signals poor permeation. In the case of `Cc1c2oc3c(C)ccc(C(=O)N[C@@H]4C(=O)N[C@H](C(C)C)C(=O)N5CCC[C@H]5C(=O)N(C)CC(=O)N(C)[C@@H](C(C)C)C(=O)O[C@@H]4C)c3nc-2c(C(=O)N[C@@H]2C(=O)N[C@H](C(C)C)C(=O)N3CCC[C@H]3C(=O)N(C)CC(=O)N(C)[C@@H](C(C)C)C(=O)O[C@@H]2C)c(N)c1=O` [DACTINOMYCIN] (I: T[dV]P[Sar][NMeV] / II: T[dV]P[Sar][NMeV]; ester I:1-I:C, II:1-II:C; linker I:N-II:N via Actinocin(9to1)), the apparent permeability (Papp) was 4.5 ×10⁻⁶ cm/s in data set [6] and 0.8 ×10⁻⁶ cm/s in data set [7]. For the same molecule, the efflux ratio at 2 h, 10 µM in the data set “in vitro [2]” was 6.4; in the data set on P-gp (Caco-2, with LY335979 1 uM), 4. The molecule further had a Fa in the data set “clinical” of 5%.
For the molecule `COc1ccc([C@@H]2Sc3ccccc3N(CCN(C)C)C(=O)[C@@H]2OC(C)=O)cc1` [DILTIAZEM], the Ratio in the data set on MDCK [1] was 0.8. Besides, the efflux ratio at 2 h, 10 µM in the data set “in vitro [2]” stood at 0.7; with P-gp (Caco-2, with LY335979 1 uM) it was 0.4. This molecule also had a Papp A→B at 2 h, 10 µM in “in vitro [3]” of 12 ×10⁻⁶ cm/s. In “in vitro [5]”, the Papp B→A at 2 h, 10 µM came out at 8.3 ×10⁻⁶ cm/s.
In the case of `O=C(O)c1cc(/N=N/c2ccc(S(=O)(=O)Nc3ccccn3)cc2)ccc1O` [SULFASALAZINE], the efflux ratio at 2 h, 10 µM in the data set “in vitro [2]” stood at 16.9; in the data set on P-gp (Caco-2), 32.2. Moreover, the “fold change (FC)” value in data set [8] amounted to 9.
Consider `COc1cccc2c1C(=O)c1c(O)c3c(c(O)c1C2=O)C[C@@](O)(C(C)=O)C[C@@H]3O[C@H]1C[C@H](N)[C@H](O)[C@H](C)O1` [DAUNORUBICIN], for which the Fa in “clinical” is 10%. The “Ratio AUC” value in the data set with Intestine amounted to 3. For the same molecule, the efflux ratio at 2 h, 10 µM with P-gp (Caco-2) was 0.4.
Consider `CC[C@@]1(O)C(=O)OCc2c1cc1n(c2=O)Cc2cc3c(CN(C)C)c(O)ccc3nc2-1` [TOPOTECAN], for which the values for the Papp in data set [6] and in [7] were 7.1 ×10⁻⁶ cm/s and 0.9 ×10⁻⁶ cm/s, respectively. In addition, the efflux ratio at 2 h, 10 µM in “in vitro [2]” came to 6.9; in the data set on P-gp (Caco-2, with LY335979 1 uM) it was 13.1. Further, the Fa in “clinical” is 30%. Moreover, the Ratio with MDCK [4] turned out to be 2.4.
Turning to `Cc1ccccc1N1C(=O)c2cc(S(N)(=O)=O)c(Cl)cc2NC1C` (centres undefined) [METOLAZONE], the Papp was determined as 9.6 ×10⁻⁶ cm/s in data set [6] and 1.8 ×10⁻⁶ cm/s in data set [7]. Further, the efflux ratio at 2 h, 10 µM worked out at 3.3 in the data set “in vitro [2]” and 2.1 in the data set with P-gp (Caco-2, with LY335979 1 uM). Further, the Ratio with MDCK [4] was 5.1.
As for `CC[C@]1(O)C[C@@H]2CN(CCc3c([nH]c4ccccc34)[C@@](C(=O)OC)(c3cc4c(cc3OC)N(C)[C@H]3[C@@](O)(C(=O)OC)[C@H](OC(C)=O)[C@]5(CC)C=CCN6CC[C@]43[C@@H]65)C2)C1` [VINBLASTINE], the efflux ratio at 2 h, 10 µM in “in vitro [2]” worked out at 13.5; in the data set with P-gp (Caco-2), 2. Further, the Fa in the data set “clinical” amounted to 5%. For the same molecule, the apparent permeability from apical to basolateral (Papp A→B) at 2 h, 10 µM in “in vitro [3]” came to 1 ×10⁻⁶ cm/s. The Ratio in the data set with MDCK [4] turned out to be 1.8. The “Ratio AUC” value in the data set with Intestine was 0.7. In “in vitro [5]”, this molecule had a Papp B→A at 2 h, 10 µM of 11.9 ×10⁻⁶ cm/s.
For IVERMECTIN, the Fabs in the data set listed under Homo sapiens came to 56%.
In the case of `CN/C(=N/CCSCc1nc[nH]c1C)NC#N` [CIMETIDINE], the efflux ratio at 2 h, 10 µM is 3.5 in “in vitro [2]” and 1.8 with P-gp (Caco-2). In addition, the Fa in “clinical” came out at 60%. The same molecule registered a Papp A→B at 2 h, 10 µM in the data set “in vitro [3]” of 1.4 ×10⁻⁶ cm/s. For the same molecule, the “Ratio AUC” value in the data set with Intestine is listed as 0.95. The Papp B→A at 2 h, 10 µM in the data set “in vitro [5]” is 4.8 ×10⁻⁶ cm/s.
Take `O=C1C(CC[S+]([O-])c2ccccc2)C(=O)N(c2ccccc2)N1c1ccccc1` (centres undefined) [SULFINPYRAZONE]: the Papp in data set [6] was 5.8 ×10⁻⁶ cm/s; in [7] it was 1.2 ×10⁻⁶ cm/s. For the same molecule, the efflux ratio at 2 h, 10 µM came out at 3.3 in “in vitro [2]” and 9 in the data set on P-gp (Caco-2, with LY335979 1 uM). The molecule further displayed a Fa in “clinical” of 85%.
In the same order, the values of `CC1=C(CC(=O)O)c2cc(F)ccc2/C1=C\c1ccc([S+](C)[O-])cc1` (centres undefined) are 13.5 ×10⁻⁶ cm/s, 2 ×10⁻⁶ cm/s, 3.6, 2.6 and 90%.
Take `COc1cc2c(c(OC)c1OC)-c1ccc(OC)c(=O)cc1[C@@H](NC(C)=O)CC2` [COLCHICINE]: the figures for the efflux ratio at 2 h, 10 µM in “in vitro [2]” and in the data set with P-gp (Caco-2) were 4.3 and 0.8, respectively. The Fa in “clinical” worked out at 44%. For the same molecule, in [8], the “fold change (FC)” value is recorded as -0.4.
For `CC[C@H]1OC(=O)[C@H](C)[C@@H](O[C@H]2C[C@@](C)(OC)[C@@H](O)[C@H](C)O2)[C@H](C)[C@@H](O[C@@H]2O[C@H](C)C[C@H](N(C)C)[C@H]2O)[C@](C)(O)C[C@@H](C)C(=O)[C@H](C)[C@@H](O)[C@]1(C)O` [ERYTHROMYCIN], the efflux ratio at 2 h, 10 µM in “in vitro [2]” was determined as 7.1; in the data set on P-gp (Caco-2), 0.5. In “clinical”, this molecule yielded a Fa of 35%. In “in vitro [3]”, this molecule had a Papp A→B at 2 h, 10 µM of 0.3 ×10⁻⁶ cm/s. In addition, the Ratio with MDCK [4] is 8.5. In addition, the “fold change (FC)” value in data set [8] is 1. In “in vitro [5]”, this molecule showed a Papp B→A at 2 h, 10 µM of 3 ×10⁻⁶ cm/s.
As for `O=c1[nH]c2ccccc2n1CCCN1CCC(n2c(=O)[nH]c3cc(Cl)ccc32)CC1` [DOMPERIDONE], the Fa in the data set “clinical” turned out to be 93%. For the same molecule, the Papp A→B at 2 h, 10 µM in “in vitro [3]” turned out to be 5.2 ×10⁻⁶ cm/s. Besides, the “fold change (FC)” value in data set [8] is 3. In “in vitro [5]”, this molecule displayed a Papp B→A at 2 h, 10 µM of 15.4 ×10⁻⁶ cm/s.
`C=CCN1CC[C@]23c4c5ccc(O)c4O[C@H]2C(=O)CC[C@@]3(O)[C@H]1C5` [NALOXONE]: the Ratio in the data set on MDCK [1] turned out to be 0.7. For the same molecule, the efflux ratio at 2 h, 10 µM in “in vitro [2]” came to 0.5; in the data set with P-gp (Caco-2, with LY335979 1 uM), 0.5. In addition, in “in vitro [3]”, the Papp A→B at 2 h, 10 µM is 21.5 ×10⁻⁶ cm/s. In the data set “in vitro [5]”, this molecule showed a Papp B→A at 2 h, 10 µM of 10.3 ×10⁻⁶ cm/s.
Take `CN(Cc1cnc2nc(N)nc(N)c2n1)c1ccc(C(=O)N[C@@H](CCC(=O)O)C(=O)O)cc1` [METHOTREXATE]: in “in vitro [2]”, the efflux ratio at 2 h, 10 µM stood at 0.9. Further, the Papp A→B at 2 h, 10 µM in “in vitro [3]” was found to be 1.2 ×10⁻⁶ cm/s. The “fold change (FC)” value in [8] is -0.2. In the data set “in vitro [5]”, this molecule came in with a Papp B→A at 2 h, 10 µM of 1.1 ×10⁻⁶ cm/s.
Regarding `C[C@H]1O[C@@H](O[C@H]2[C@@H](O)C[C@H](O[C@H]3[C@@H](O)C[C@H](O[C@H]4CC[C@@]5(C)[C@H](CC[C@@H]6[C@@H]5C[C@@H](O)[C@]5(C)[C@@H](C7=CC(=O)OC7)CC[C@]65O)C4)O[C@@H]3C)O[C@@H]2C)C[C@H](O)[C@@H]1O` [DIGOXIN], the Ratio came out at 27 in the data set on MDCK [1] and 1.3 with MDCK [4]. Further, the results for the efflux ratio at 2 h, 10 µM in the data set “in vitro [2]” and in the data set with P-gp (Caco-2) were 7.5 and 1, respectively. Moreover, the Fa in the data set “clinical” stood at 68%. Moreover, in the data set with Intestine, the “Ratio AUC” value was 12.
As for `CC(C)n1c(/C=C/C(O)CC(O)CC(=O)O)c(-c2ccc(F)cc2)c2ccccc21` (centres undefined) [FLUVASTATIN], in the data set on MDCK [1], the Ratio was determined as 4.9. For the same molecule, the apparent permeability coefficient (Papp) in [6] is 15.3 ×10⁻⁶ cm/s; in data set [7] it was 1.5 ×10⁻⁶ cm/s. In “clinical”, this molecule had a Fa of 98%. Besides, the efflux ratio at 2 h, 10 µM with P-gp (Caco-2, with LY335979 1 uM) stood at 12.3.
